# Measured values taken from the NIST ThermoML archive (doi:10.1016/j.fluid.2006.06.013).
# Numbers after ± are expanded uncertainties.
# Legend:
# [1] = for vapor or sublimation pressure: Liquid
# [2] = refractive index (Na D-line) (dimensionless); details: 293.2 K; 101.33 kPa; Liquid; Standard Abbe refractometry
"Normal melting temperature ([1]; Crystal, visual observation) [°C]",Structure (SMILES),vapor or sublimation pressure ([1]; 417.59 K) [kPa],vapor or sublimation pressure ([1]; 425.4 K) [kPa],vapor or sublimation pressure ([1]; 435.12 K) [kPa],vapor or sublimation pressure ([1]; 444.5 K) [kPa],vapor or sublimation pressure ([1]; 454.9 K) [kPa],vapor or sublimation pressure ([1]; 466.01 K) [kPa],vapor or sublimation pressure ([1]; 475.82 K) [kPa],vapor or sublimation pressure ([1]; 486.11 K) [kPa],vapor or sublimation pressure ([1]; 496.11 K) [kPa],vapor or sublimation pressure ([1]; 506.87 K) [kPa],vapor or sublimation pressure ([1]; 516.84 K) [kPa],vapor or sublimation pressure ([1]; 525.54 K) [kPa],refractive index [2]
–,"COC(=O)c1ccccc1C(=O)OC [dimethyl 1,2-benzenedicarboxylate]",0.934 ± 0.12,1.466 ± 0.13,2.21 ± 0.13,3.356 ± 0.13,5.164 ± 0.13,7.823 ± 0.14,11.13 ± 0.14,15.42 ± 0.15,20.93 ± 0.15,28.7 ± 0.17,38.16 ± 0.18,48.71 ± 0.2,1.516 ± 0.001
52.5 ± 0.5,O=C1C=CC(=O)O1 [maleic anhydride],–,–,–,–,–,–,–,–,–,–,–,–,–
